The values that follow come from patent US20070276024A1, “Methods for Treating Diseases and Conditions with Inverse Agonists and for Screening for Agents Acting as Inverse Agonists” (Inverseon , Inc., priority 2003, published 2007).

The test system of assay [1] is asthmatic mice. Briefly: Airway resistance (Raw) response to methacholine in murine model of asthma. Format: in vivo, Balb/cJ mice. On the procedure:
Balb/cJ mice aged 6 weeks (Jackson Animal Laboratory, Bar Harbor, Maine) were housed under specific pathogen-free conditions and fed a chicken ovalbumin-free diet. The Animal Research Ethics Boards of both the University of Houston and the Baylor College of Medicine approved all experiments reported here. […] Mice were sensitized with subcutaneous injection of 25 μg of ovalbumin adsorbed to aluminum hydroxide on protocol days 2, 9, and 16. Subsequently, mice were given 50 μL of saline solution containing 25 μg of ovalbumin intranasally, on a daily basis, from protocol days 23 through 27. A group of ovalbumin-sensitized saline-challenged mice serves as controls for systemic sensitization and respiratory challenges with ovalbumin. Prior to intranasal administrations, mice were sedated with halothane vapor.
To examine the effects of duration of β-adrenergic ligand therapy on the phenotype of the murine model of asthma, the experimental drugs were administered either acutely or chronically to different groups of asthmatic mice.
Asthmatic mice on acute therapy were given a single intravenous bolus infusion of either β-adrenergic drug or normal saline on protocol day 28, 15 minutes before airway responsiveness to methacholine was determined. […] […] […] These concentrations were chosen based on those producing therapeutic effects in mice in previously published studies. The non-asthmatic mice were fed normal chow.
On protocol day 28, mice were anesthetized, tracheotomized, and connected to a computer-controlled small animal ventilator (Flexivent, Scientific Respiratory Equipment, Inc., Montreal, Canada). Airway resistance (Raw) was measured using the forced oscillation technique. The cellular composition of bronchoalveolar lavage fluid (BALF) was also determined.
To induce airway constriction, a solution containing 150 μg/mL of acetyl-α-methylcholine chloride (methacholine) (Sigma Chemical, St. Louis, Mo.) was infused intravenously at constant rates using a syringe infusion pump (Raze Scientific Instruments, Stanford, Conn.). […] Each methacholine dose was administered for 3 to 5 minutes, during which data were sampled at 1-minute intervals and then averaged.
The complex input impedance of the respiratory system was computed and the value of the real part of respiratory system impedance at 19.75 Hz was taken to reflect the magnitude of airway resistance (Raw). To examine the degree of airway responsiveness of each animal, the values for Raw as a function of methacholine doses were plotted. The largest value for Raw achieved in response to methacholine stimulation was referred to as Rawpeak. For mice that achieved a plateau in the methacholine dose-Raw response curve, the ED50 was calculated by linear interpolation using the GraphPad Prism4 (GraphPad Software, Inc.). […] The Bonferroni test was used to examine the statistical differences between experimental groups. The effects of acute drug treatments on baseline respiratory system mechanics were assessed using a two-tailed paired t-test. A value of P<0.05 was considered significant.
For these experiments, salbutamol was used for chronic administration at 0.5 mg/kg/day with a minipump and for acute administration at 0.15 mg/kg by i.v. bolus 15 minutes prior to challenge. Alprenolol was used at a high dose of 7200 ppm in chow or at a low dose of 720 ppm in chow. Carvedilol was used at a high dose of 2400 ppm in chow or at a low dose of 720 ppm in chow.
The airway resistance (Raw) is plotted as cm H2O ml^−1 s.

In assay [2] the target is T1, β2-adrenergic receptor (Mus musculus, UniProt P18762). It is filed as in vivo, mice. To be noted: for increase of the level of β2-adrenergic receptors over the non-treated mice: chronic administration; for Bmax (receptor density) / βmax (receptor density): lung membranes, mean±SEM, n=3-5; for Bmax (receptor density): drug treatment 15 Minutes; for βmax (receptor density): drug treatment 28 Days. As for the experimental part: β2-adrenergic receptor numbers were measured in asthmatic mice as follows. […] Mice were sacrificed and lung membranes were isolated as follows. Frozen lung tissue was homogenized in an ice-cold buffer containing 0.32 M sucrose and 25 mM Tris (pH 7.4) using a polytron (Pro 200, Pro Scientific, Inc.). The homogenate was centrifuged at 1000×g for 10 min at 4° C. The resulting supernatant was centrifuged at 40,000×g for 20 min at 4° C. The pellet was suspended in an ice-cold 25 mM Tris-HCl buffer (pH 7.4) and centrifuged at 40,000'g for 20 min at 4° C. The final pellet was suspended in 200 μL of 25 mM Tris-HCl (pH 7.4); membrane protein concentration was determined by BCA protein assay kit. […] The incubation was done at 37° C. for 2 h and terminated by rapid vacuum filtration through glass fiber filters. The filters were washed three times with 250 μL of cold wash buffer (25 mM Tris-HCl, pH 7.4) and the radioactivity determined in a counter. […] Receptor densities are expressed as femtomoles of sites per milligram of protein. Bmax is determined by nonlinear regression of the saturation binding curves.
T1 sequence (P18762 whole entry): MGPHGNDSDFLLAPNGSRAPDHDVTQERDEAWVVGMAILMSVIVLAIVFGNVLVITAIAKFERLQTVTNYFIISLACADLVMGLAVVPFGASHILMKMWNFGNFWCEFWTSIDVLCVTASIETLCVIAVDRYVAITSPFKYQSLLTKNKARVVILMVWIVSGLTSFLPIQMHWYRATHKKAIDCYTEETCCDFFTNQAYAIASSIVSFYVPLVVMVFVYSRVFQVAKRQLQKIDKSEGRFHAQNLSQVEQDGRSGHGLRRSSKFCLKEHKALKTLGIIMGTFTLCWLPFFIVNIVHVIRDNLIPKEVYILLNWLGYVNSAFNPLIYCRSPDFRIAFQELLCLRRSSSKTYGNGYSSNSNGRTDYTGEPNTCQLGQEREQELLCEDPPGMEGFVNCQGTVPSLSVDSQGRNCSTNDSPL

Assay [3] concerns asthmatic mice. Put plainly: Combination of carvedilol and salbutamol on airway hyperresponsiveness. The conditions noted are these: at the highest dose of methacholine; 28 days treatment. Format: in vivo, Balb/cJ mice. As for the experimental part: Mice (Balb/cJ) aged 6 weeks were housed under specific pathogen-free conditions and fed a chicken ovalbumin-free diet. Mice were systemically sensitized with ovalbumin adsorbed to aluminum hydroxide. Mice were treated as follows: CAR/SAL 28D=for 28 days mice (n=6-12) were administered carvedilol (2400 ppm in animal chow) and salbutamol (subcutaneous delivery of 0.5 mg/kg/day in an Alzet #2400 osmotic minipump); NTX S/C=mice (n=6-12) no drug treatment for 28 days; CTRL=mice (n=6-12) no drug treatment for 28 days, not subsequently challenged; CARHD 28D=for 28 days mice (n=6-12) were administered carvedilol only (2400 ppm in animal chow); CARHD 28D SAL AC=for 28 days mice (n=6-12) were administered carvedilol (2400 ppm in animal chow) and 15 minutes prior to measuring airway hyperresponsiveness, salbutamol was administered at a dose of 1.2 mg.kg.
To measure airway hyperresponsiveness after 28 days, all mice except the CTRL (control) mice were challenged with ovalbumin and then all mice were anesthetized, tracheotomized, and connected to a Flexivent small animal ventilator to measure airway resistance (Raw) by the forced oscillation technique. To induce airway constriction, a solution containing 150 μg/mL of methacholine was infused using a syringe infusion pump. The methacholine infusion was started at 0.008 mL/min and its rate was doubled stepwise up to a maximum […]. […]

The test system of assay [4] is patients with CHF. The conditions noted are these: cited from earlier work.
Assay [5] deals with sensitized and allergen-challenged mice. Put plainly: Aminophylline on acute airway effects of nadolol. It is filed as in vivo. As for the experimental part:
Mice were sensitized to the allergen ovalbumin as described in Example 1.
At time point 1 (time=−10 min) baseline airway resistance of the mice was determined. At time point 2 (time=−5 min) methacholine was infused into mice to reach their EC70.

Assay [6] concerns Phospholipase C (PLC-β1). Briefly: Ratio of phospholipase C to actin in cultured tracheal smooth muscle cells (immunoblot). Format: cell-based. The conditions noted are these: cells from asthmatic mice, chronic high dose treatment. An excerpt:
Cultured tracheal smooth muscle cells were obtained from mice exposed to the following treatments: NS/NC=nonasthmatic, non-challenged mice; S/C=asthmatic mice; Sal.Ac=asthmatic mice, acute salbutamol treatment; Sal.Ch=asthmatic mice, chronic salbutamol treatment; Nad.Ac=asthmatic mice, acute nadolol high dose treatment; and Nad.Ch=asthmatic mice, chronic nadolol high dose treatment.
After airway function experiments, the trachea were surgically removed from anesthetized mice that had been treated with drugs or vehicle. The trachea was minced and the cells plated and grown in culture. The smooth muscle cells grow faster and take over the culture dish. The cells were grown in medium which contained the drugs used in the treatment or vehicle controls. Phospholipase C (PLC-β1) was determined by immunoblotting with an antibody specific for the enzyme. Actin was used as a loading control and the amount of PLC-β1 was expressed as a ratio to actin.
The phospholipase C protein level was measured in these cultured cells and compared with the level of the structural protein actin as a baseline. The enzyme phospholipase C plays a key role in the pathway leading to asthmatic symptoms, as it cleaves a phosphodiester bond in membrane phospholipids, resulting in the formation of a 1,2-diglyceride. […]
In general terms: In western blotting, separated proteins are transferred to a membrane and probed.

For assay [7], the system named is asthmatic mice. To be noted: Callaerts-Vegh et al. 2004, cited from earlier work.
The target of assay [8] is T1, β2-adrenergic receptor. Briefly: Immunohistochemistry of β2-adrenergic receptor levels in lungs. It is filed as in vivo, mice. Further details: from tissue; host or cells: fixed lung sections of mice. To be noted: chronic treatment, versus untreated animals. As for the experimental part: The mice were sacrificed and the lungs excised. Then the lungs were fixed in 4% paraformaldehyde (45 min, 0° C.). After fixation, lungs were washed in PBS (60 min) and placed in increasing concentrations of sucrose (10% sucrose/5% glycine in PBS for 30 min; 20% sucrose/10% glycine in PBS for 30 min; 30% sucrose/25% glycine in PBS for 12 h at 4° C.). Lungs were embedded in OCT and 12-μm sections cut with a Tissue-Tek II cryostat. The sections were air dried and fixed with 4% paraformaldehyde for 15 min. After 3 washes in PBS, the slides were blocked with 5% milk in PBS for 1 h, and then incubated overnight with anti-β2-adrenergic receptor antibody (1:200, Santa Cruz Biotechnology) in blocking solution. Slides were washed in PBS and incubated with secondary antibody (1:200, Cy3 goat anti-rabbit, 16 h at 4° C.). […] After washing with PBS, coverslips were mounted and viewed by epifluorescent microscopy.

[9] abbreviates: asthmatic mice, acute: single intravenous bolus 15 minutes before methacholine.
[10] abbreviates: asthmatic mice, chronic administration, 28 days (in chow; salbutamol by osmotic minipump).

“Also recorded” adds a separate entry of the source. Where two headings read alike, the source gives them in different places.

Turning to `COc1ccccc1OCCNCC(O)COc1cccc2[nH]c3ccccc3c12` (centres unmarked) [Carvedilol, carvedilol], the “Decreased Raw” value in assay [1] (15 minutes of administration) is “no”; in assay [1] (2 days of administration), “no”; in assay [1] (28 days of administration), “yes”. Also, the “airway responsiveness to methacholine provocation (airway resistance, Raw)” value is recorded as “enhanced the airway responsiveness” in assay [1] (setting [9]) and “does reduce airway hyperresponsiveness; also recorded: reduced the responsiveness of asthmatic mice to methacholine provocation; also recorded: providing protection from airway hyperresponsiveness” in assay [1] (setting [10]). In assay [1] (asthmatic mice, chronic delivery, 28 days), the “shift of methacholine dose-airway response relationship” value is “shifts the sensitivity of the responsiveness to methacholine to lower concentrations; also recorded: shifted the methacholine dose-airway response relationship to the left”. Moreover, the “Increased β2AR density” value is reported as “no” in assay [2] (15 minutes of administration); “no” in assay [2] (2 days of administration); “yes” in assay [2] (28 days of administration); “increase in receptor density” in assay [2] (28 days of administration, listed as carvedilol). The “increase of the level of β2-adrenergic receptors over the non-treated mice” value in assay [2] is reported as “over 10 fold”. Moreover, in assay [2], the “Bmax (receptor density)” value is 86.3 ± 19.42 femtomoles of sites per milligram of protein. The “βmax (receptor density)” value in assay [2] is on record as 904.1 ± 43.46 femtomoles of sites per milligram of protein. Further, the “bronchoconstriction (airway resistance)” value in assay [3] was “higher bronchoconstriction than these treatments but less than the non-drug treated sensitized and challenged (NTX S/C) mice”. Besides, the “clinical outcome (mortality, benefit over placebo)” value in assay [4] is “significant mortality reduction”.

For `CC(C)(C)NCC(O)COc1cccc2c1CC(O)C(O)C2` (centres unmarked) [Nadolol, nadolol], the “Decreased Raw” value is “no” in assay [1] (15 minutes of administration), “yes” in assay [1] (2 days of administration) and “yes” in assay [1] (28 days of administration). Further, the “airway resistance (Raw)” value in assay [1] (asthmatic mice, 1 ppm in chow) is “identical to the untreated mice”. For the same compound, the “airway responsiveness to methacholine provocation (airway resistance, Raw)” value in assay [1] (setting [9]) was “enhanced the airway responsiveness”; in assay [1] (setting [10]), “produced a decrease in airway responsiveness; also recorded: providing protection from airway hyperresponsiveness; also recorded: reduced the responsiveness”. Further, the “Increased β2AR density” value in assay [2] (15 minutes of administration) is on record as “no”; in assay [2] (2 days of administration) it was “yes”; in assay [2] (2 days of administration, listed as nadolol), “increase in receptor density”; in assay [2] (28 days of administration), “yes”; in assay [2] (28 days of administration, listed as nadolol), “increase in receptor density”. Besides, the “increase of the level of β2-adrenergic receptors over the non-treated mice” value in assay [2] is reported as “nearly eightfold increase”. For the same compound, in assay [2], the “Bmax (receptor density)” value is listed as 181.9 ± 48.28 femtomoles of sites per milligram of protein. Further, in assay [2], the “βmax (receptor density)” value is 785.5 ± 154.8 femtomoles of sites per milligram of protein. Moreover, in assay [5] (pretreated 0.72 mg/kg i.p.), the baseline airway resistance entry is given as “same baseline airway resistance”. For the same compound, in assay [5] (pretreated 0.72 mg/kg i.p. 15 minutes prior to methacholine, methacholine infused to EC70), the “airway resistance upon methacholine challenge” value was around 4.5 units. Moreover, the “phospholipase C (ratio of PLC-β1 to actin)” value in assay [6] is on record as “significantly decreases the activity of phospholipase C”. Moreover, the airway hyperresponsiveness entry is listed as “worsens airway hyperresponsiveness” in assay [7] (administered acutely) and “prevents airway hyperresponsiveness” in assay [7] (administered chronically). Besides, in assay [8], the “labeling with anti-β2-adrenergic receptor antibodies in lungs” value was “considerably more intense; also recorded: increase in β-adrenergic receptor density”.
